Experimental data taken from ChEMBL document CHEMBL3507680, “University of Dundee, Gates Library screen for HepG2 cell viability”.

Assay: Human HepG2 cell viability assay in 384 well format
Type: toxicity, cell-based
Design: dose 125 nL, time 70.5 hour; cytotoxicity at 70.5 h: concentration not given beside the values
Conditions: HepG2 cells, read-out: Inhibition

Going from `CN(C)c1nc(CNC(=O)Nc2cccc([S+](C)[O-])c2)cs1` (stereo not drawn) to `CCN(CC(=O)N(C)C)C(=O)c1ccc(-c2nc(C)cs2)cc1`, the cytotoxicity at 70.5 h rises from -5.56% to -4.36%.

Compared with `CCc1nnc(C(C)N2CCN(CCC(=O)NC3CC3)CC2)o1` (stereo not drawn), `CCN1CCN(C(C)CNC(=O)Nc2nc3ccccc3s2)CC1` (stereo not drawn) is lower in cytotoxicity at 70.5 h: 22% for the first, -7.3% for the second.

First: Cc1c(C(=O)N2CCCN(S(C)(=O)=O)CC2)cnn1C
Second: COc1c(C2CCCN2CC(=O)N2CCCCC2)c(C)nn1C (stereo not drawn)
The cytotoxicity at 70.5 h of the first is lower: -3.33% for the first, 4.89% for the second.

First: FC(F)(F)c1csc(N2CCN(Cc3ccccn3)CC2)n1
Second: CC(O)CN1CCN(Cc2coc(-c3ccccc3)n2)CC1 (stereo not drawn)
The cytotoxicity at 70.5 h of the first is higher: -6.63% for the first, -7.79% for the second.

Going from `CCN(CC(=O)NC(C)C)C(=O)c1csc(Cc2ccccc2)n1` to `CCc1nc(C(=O)N(CC)CC(=O)N(C)C)nn1-c1ccccc1Cl`, the cytotoxicity at 70.5 h rises from -9.03% to -2.5%.

Compared with `NC(=O)[C@@H]1Cc2ccccc2CN1CCC(=O)N1CCOCC1`, `O=C(Nc1ccc2c(ccn2CCN2CCOCC2)c1)c1ccccn1` is higher in cytotoxicity at 70.5 h: -5.31% for the first, -3.62% for the second.

Going from `OC(CNCCn1cccn1)COc1cccc(C(F)(F)F)c1` (stereo not drawn) to `OC(CNCCn1cccn1)COc1ccc(F)cc1` (stereo not drawn), the cytotoxicity at 70.5 h rises from -1.44% to 5.18%.

First: OC(CNCCn1cccn1)COc1ccc2ccccc2c1 (stereo not drawn)
Second: Cc1cccc(NC(=O)CN(C)C(=O)c2ccc(-n3cccc3)nc2)n1
The cytotoxicity at 70.5 h of the first is higher: -0.315% for the first, -4.2% for the second.

First: O=C(Cc1cccs1)NCC1(O)CCSC1 (stereo not drawn)
Second: CC(Nc1cccc2c1OCCO2)C(=O)NC(N)=O (stereo not drawn)
The cytotoxicity at 70.5 h of the first is lower: -5.51% for the first, -2.31% for the second.

Compared with `O=C(c1ccco1)N(CC(F)(F)F)C1CCCOC1` (stereo not drawn), `COC(=O)CN(CC1CCOC1)C1CC1` (stereo not drawn) is lower in cytotoxicity at 70.5 h: -2.62% for the first, -3.42% for the second.

Going from `O=C(NC1CCC(O)CC1)c1cnc2c(cnn2C2CCCC2)c1` (stereo not drawn) to `O=C(c1ccc(F)c(Br)c1)N1CCCN2CCCC2C1` (stereo not drawn), the cytotoxicity at 70.5 h falls from -0.508% to -8.34%.

Compared with `Cc1noc(C)c1CNc1cccc(C(=O)N(C)c2ccccc2)c1`, `CC(=O)Nc1ccc(CNc2cccc(CS(C)(=O)=O)c2)cc1` is lower in cytotoxicity at 70.5 h: 14.2% for the first, -3.91% for the second.

Compared with `COCC(C)NC(=O)CN1CCC2(CC1)OCCO2` (stereo not drawn), `CCC(C)NC(=O)CN1CCC2(CC1)OCCO2` (stereo not drawn) is higher in cytotoxicity at 70.5 h: -3.81% for the first, 3.04% for the second.

First: CCOC(=O)CCCN1CCCC(C(=O)Nc2ccc(Cl)cn2)C1 (stereo not drawn)
Second: CCNc1ccnc(CN2CCCC2C(=O)Nc2nccs2)c1 (stereo not drawn)
The cytotoxicity at 70.5 h of the first is higher: 15.1% for the first, 8.54% for the second.

First: O=C(Nc1nccs1)C1CCCN1Cc1ccccn1 (stereo not drawn)
Second: O=C(c1sccc1C1CC1)N1CCN(c2ncccn2)CC1
The cytotoxicity at 70.5 h of the first is lower: -5.74% for the first, -0.605% for the second.

Going from `CC(C)(O)CN1CCN(C(=O)c2cccn2Cc2cccnc2)CC1` to `O=C(c1sccc1C1CC1)N1CCN(c2cnccn2)CC1`, the cytotoxicity at 70.5 h falls from -8.17% to -11.8%.

Compared with `Cc1nnc(NC(=O)NCC(C)N2CCOCC2)s1` (stereo not drawn), `O=C(NCc1ccc(N2CC=CC2)cc1)Nc1nnc(C2CC2)s1` is higher in cytotoxicity at 70.5 h: -11% for the first, 22.1% for the second.

First: CCCn1cc(NC(=O)c2ccc(NC(=O)NC3CC3)cc2)ccc1=O
Second: CCCn1cc(NC(=O)c2ccncc2)ccc1=O
The cytotoxicity at 70.5 h of the first is lower: -10.8% for the first, -8.23% for the second.

Going from `CC(=O)Nc1ccc(CNCc2ccc(CS(C)(=O)=O)cc2)cc1` to `COc1ccc(CCN(C)CCS(=O)(=O)c2ccc(Cl)cc2)cc1OC`, the cytotoxicity at 70.5 h falls from 15.3% to -13.8%.

First: CN(Cc1cccc(C#N)c1)c1ncc(C(N)=O)cc1Cl
Second: CCN(CC(=O)Nc1cc(Cl)ccc1C)C(=O)c1ccc(=O)[nH]n1
The cytotoxicity at 70.5 h of the first is lower: -8.78% for the first, -2.64% for the second.

Compared with `O=C(c1sccc1C1CC1)N1CCCN(c2cccnn2)CC1`, `O=C(c1ccc(-n2cccn2)c(F)c1)N1CCCN2CCCC2C1` (stereo not drawn) is lower in cytotoxicity at 70.5 h: -7.16% for the first, -8.24% for the second.

Compared with `COC(=O)c1sc2cccc(F)c2c1CNC(=O)C1CCOC1` (stereo not drawn), `COC(=O)CNC(=O)c1scnc1C` is higher in cytotoxicity at 70.5 h: -2.33% for the first, -1.16% for the second.

Compared with `Cc1csc(C2(NC(=O)CCNC(=O)C(C)(C)C)CCCC2)n1`, `CCOCC(=O)NC1(c2nc(C)cs2)CCCC1` is lower in cytotoxicity at 70.5 h: 0.031% for the first, -2.89% for the second.

First: COC(=O)C1CN(Cc2nc(C(C)(C)C)cs2)C[C@@H](C)O1 (stereo partly drawn)
Second: CC(C)(C)c1cnc(CN2CCC(CO)CC2)o1
The cytotoxicity at 70.5 h of the first is lower: -7.31% for the first, -3.87% for the second.

First: CCOc1cncc(N2CCN(c3ccccc3O)CC2)n1
Second: CNC(=O)CNCc1c[nH]nc1-c1cc2ccccc2o1
The cytotoxicity at 70.5 h of the first is higher: 13.6% for the first, -1.2% for the second.

Going from `CCc1nc2c(s1)C(N(C)C(C)=O)CCC2` (stereo not drawn) to `CC(C)N(C)C(=O)COc1ccc(-c2noc(C3CCCO3)n2)cc1` (stereo not drawn), the cytotoxicity at 70.5 h rises from -7.14% to 5.4%.

Compared with `CC(C)NC(=O)c1cccc(NC(=O)CCCc2nc(C(C)C)no2)c1`, `O=C(COC1CCCC1)NCCc1nc(-c2ccccn2)cs1` is lower in cytotoxicity at 70.5 h: 5.5% for the first, -3.01% for the second.

Going from `CCc1ccc(CN(CCCn2ccnc2)Cc2ccc(C)s2)o1` to `Cc1cccc(CN(Cc2ccc(C)o2)C2CC(C)(C)NC(C)(C)C2)n1`, the cytotoxicity at 70.5 h falls from 21.1% to -9.61%.

Going from `Cc1ccc([C@]2(O)CC[C@H]3CN(Cc4cc(C)c(O)c(C)c4)C[C@H]32)nc1` to `O[C@]1(c2ccccn2)CC[C@@H]2CN(Cc3cccc4ncccc34)C[C@@H]21`, the cytotoxicity at 70.5 h falls from 30.6% to 15.3%.
